How the values were obtained:
[1] = Pharmacokinetic evaluation in Nu/Nu mice (plasma, LC-MS/MS); format: in vivo; conditions: mouse, in vivo, po, i.g., 100 mg/kg
Protocol: Using Nu/Nu mice as the test animals, the plasma concentrations of the example compounds at different time points were determined by LC-MS/MS following oral gavage (i.g.) administration. The pharmacokinetic behaviours of the compounds of the present disclosure in Nu/Nu mice were investigated, and their pharmacokinetic profiles were evaluated.
Compound 1-p1, compound 2-p1, compound 8-p1 and comparative example 1.
A total of 36 female Nu/Nu mice (supplied by Vital River Laboratory Animal Technology Co., Ltd.) were randomly divided into 4 groups.
An appropriate amount of each test compound was weighed and dissolved in 5% DMSO+20% PEG400+70% (10% TPGS)+5% (1% HMPC K100LV) to prepare a 10 mg/mL colourless clear solution.
The administration dosage was 100 mg/kg, and the administration volume was 10 mL/kg.
Mice were not fasted. After oral gavage administration, blood (0.1 mL) was collected from the orbital cavity before administration, and at 0.25 h, 0.5 h, 1.0 h, 2.0 h, 4.0 h, 6.0 h, 8.0 h, 11.0 h and 24.0 h after administration. The blood was placed into EDTA-K2 anticoagulant tubes and centrifuged at 10000 rpm for 1 minute (4°C) to separate plasma. The plasma was separated within 1 h and stored at -20°C until analysis. The entire process from blood collection to centrifugation was performed in ice bath conditions.
Determination of test compound contents in plasma of Nu/Nu mice after administration of different compounds: To 20 µL of plasma samples from each time point in Nu/Nu mice, 200 µL of acetonitrile and 25 µL of verapamil (100 ng/mL) were added. The mixture was vortex-mixed for 5 minutes and centrifuged at 4000 rpm for 15 minutes. 90 µL of water and 90 µL of the supernatant were vortex-mixed for 5 minutes. 2 µL (for compound 1-p1), 2 µL (for compound 2-p1), 1 µL (for compound 8-p1), or 0.5 µL (for comparative example 1) of the supernatant was taken for LC-MS/MS analysis receptively.

HCT116 MTAP-/- cells = assay: HCT116 MTAP-/- cell proliferation assay (CellTiter-Glo, 10 days); format: cell-based; conditions: Homo sapiens, HCT-116, 240 h, growth inhibition, CTG assay Day 10
Text: • I. Experimental materials and instruments • 1. HCT116 cell line (Nanjing Kebai Biotechnology Co., Ltd., CBP60028) • 2. HCT116 MTAP-/- cell line (Nanjing Kebai Biotechnology Co., Ltd., CBP75002) • 3. DMSO (Sigma, D2650) • 4. McCoy's 5A medium (Gibco, 16600-082) • 5. Foetal bovine serum (FBS) (Gibco, 10091148) • 6. Phosphate buffered saline (DPBS) pH 7.4 (Gibco, 14190-144) • 7. Pen strep (PS) (Gibco, 15140-122) • 8. 0.25% Typsin-EDTA (1×) (Gibco, 25200-072) • 9. CellTiter-Glo® Luminescent Cell Viability Assay (Promega, G7572) • 10. 96-well round-bottom plate (JET, TCP002096) • 11. 96-well black clear bottom plate (Hangzhou Xinyou Biotechnology Co., Ltd., 060096) • 12. 1.2 mL 96-well deep well plate, clear, sterile, square-well, V-bottom (Titan, 02089063) • 13. 15-mL centrifuge tube (Titan) • 14. Biosafety cabinet (Thermo, 1300AII) • 15. Cell counter (Countstar, IC1000) • 16. Incubator (Thermo, I160) • 17. Centrifuge (Beckman coulter, Allegra X-12 centrifuge) • 18. PHERAstar FS microplate reader (BMG Labtech) • II. Experimental procedure • 1. Cell plating (Day 0) • a) The cell morphology was observed under a microscope to ensure confluence reached approximately 90%. • b) The cell supernatant was aspirated, the cells were washed once with PBS, and then the PBS was removed; and the cells were digested by adding an appropriate amount of trypsin, and left to stand at 37°C for 3 minutes. • c) The digestion was terminated by adding an equal volume of McCoy's 5A medium containing 10% FBS, and the cell suspension was collected and centrifuged at 300 g for 3 minutes; and the cells were resuspended in an appropriate amount of fresh medium. • d) The resuspended cell suspension was taken for counting. • e) The cell suspension was diluted to 1e4/mL using McCoy's 5A medium containing 10% FBS, and seeded at 50 µL per well, corresponding to 500 cells/well for HCT116 and 500 cells/well for HCT116 MTAP-/-. • f) The cell plate was placed in a 37°C, 5% carbon dioxide incubator and incubated overnight. • 2. Compound treatment (Day 1) • a) Each compound was serially diluted in DMSO to generate a 9-point concentration gradient (starting concentration: 10000 µM, 3-fold dilution; the highest concentration may be adjusted individually based on IC50 of different compounds); for example, in a 96-well round-bottom compound-dilution plate, 5 µL of the compound was sequentially diluted into 10 µL of DMSO. • b) Each concentration point of every compound was then diluted 250-fold into the corresponding volume of McCoy's 5A medium. • c) To each cell plate, 50 µL of the diluted compound solution as described above was added sequentially to the cell supernatant (50 µL/well). • d) The compound-treated cell plate was placed in a 37°C, 5% carbon dioxide incubator and incubated. • 3. Re-digestion, re-plating and compound treatment (Day 5) • a) After 5 days of compound treatment, the compound-containing medium was aspirated, and the cells were rinsed once with PBS (100 µL/well); and the PBS was removed immediately. • b) The cells were digested by adding 25 µL of trypsin and incubated at 37°C for 3 minutes, and then the digestion was terminated by adding 175 µL/well of McCoy's 5A medium containing 10% FBS. • c) The cells were mixed thoroughly using a pipette, and re-plated at 1 : 20; and specifically, 10 µL of the cell suspension was aspirated to a new 96-well plate (pre-filled with 40 µL of McCoy's 5A medium containing 10% FBS. • d) Compounds were prepared and added according to steps a) to c) in Section 2, with 50 µL added per well. • e) The compound-treated cell plate was placed in a 37°C, 5% carbon dioxide incubator and incubated. • 4. […]

[2] = target: T1, Recombinant human PRMT5: MEP50 protein (Homo sapiens, UniProt O14744); assay: Inhibitory activity against human PRMT5 enzymatic activity (HTRF quantification of SAH, +MTA); format: biochemical; conditions: +1 µM MTA; histone H4 peptide substrate (1-21), SAM; 37°C 120 min
T1 construct: purchased active motif 31521
T1 sequence (O14744 whole entry): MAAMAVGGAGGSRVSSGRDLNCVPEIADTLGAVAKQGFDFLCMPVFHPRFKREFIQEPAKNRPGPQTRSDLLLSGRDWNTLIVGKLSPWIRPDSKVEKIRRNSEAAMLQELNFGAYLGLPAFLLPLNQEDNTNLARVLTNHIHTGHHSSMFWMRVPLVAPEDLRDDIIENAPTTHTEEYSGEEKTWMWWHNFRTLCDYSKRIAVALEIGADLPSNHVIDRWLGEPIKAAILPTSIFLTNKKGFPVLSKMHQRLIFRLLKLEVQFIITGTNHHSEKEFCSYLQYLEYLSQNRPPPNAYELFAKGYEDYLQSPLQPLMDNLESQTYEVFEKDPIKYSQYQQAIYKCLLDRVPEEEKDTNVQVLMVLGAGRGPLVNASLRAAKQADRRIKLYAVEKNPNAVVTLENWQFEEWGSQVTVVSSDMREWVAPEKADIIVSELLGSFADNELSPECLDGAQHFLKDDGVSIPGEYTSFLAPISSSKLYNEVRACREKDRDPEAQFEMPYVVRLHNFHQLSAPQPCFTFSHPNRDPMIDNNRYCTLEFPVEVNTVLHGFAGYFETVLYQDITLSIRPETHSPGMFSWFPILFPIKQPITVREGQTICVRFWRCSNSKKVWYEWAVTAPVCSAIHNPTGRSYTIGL
T1 sequence (Q9BQA1 whole entry partner): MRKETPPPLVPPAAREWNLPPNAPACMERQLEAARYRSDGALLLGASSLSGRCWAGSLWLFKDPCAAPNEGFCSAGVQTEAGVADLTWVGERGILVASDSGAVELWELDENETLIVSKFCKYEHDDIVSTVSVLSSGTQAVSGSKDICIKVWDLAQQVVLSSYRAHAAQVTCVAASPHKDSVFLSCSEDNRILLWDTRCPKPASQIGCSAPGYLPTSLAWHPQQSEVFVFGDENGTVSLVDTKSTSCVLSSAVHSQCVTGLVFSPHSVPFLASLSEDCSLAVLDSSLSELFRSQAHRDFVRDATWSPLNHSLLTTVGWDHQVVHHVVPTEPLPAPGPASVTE
Protocol: • 1. Recombinant human PRMT5: MEP50 protein (active motif, 31521) • 2. EPIgeneous Methyltransferase kit (cisbio, 62SAHPEH) • 3. 96-well plate (Sangon Biotech, F610960-0010) • 4. 384-well white plate (Perkin Elmer, 6007290) • 5. 1 M Tris-HCl [pH 8.5] (Sangon Biotech, B548141) • 6. Histone H4 peptide substrates (1-21) (BPS bioscience, 52014) • 7. 5'-deoxy-5'-(methylthio)adenosine (Aladdin, D168979-25 mg) • 8. Tween-20 (Sangon Biotech, A100777-0500) • 9. DMSO (Sigma, D2650) • 10. Incubator (Shanghai Boxun Medical Biological Instrument Corp.) • 11. PHERAstar FS microplate reader (BMG Labtech)
PRMT5 can induce the transfer of a methyl group from S-adenosylmethionine (SAM) to a histone H4 peptide substrate (1-21), generating S-adenosylhomocysteine (SAH). In this experiment, the amount of SAH produced in the reaction is quantified using a Homogeneous Time-Resolved Fluorescence (HTRF) method to evaluate the inhibitory activity of compounds against PRMT5 enzymatic activity.
The sample diluent containing (or not containing) 1 µM 5 '-deoxy-5' - (methylthiyl) adenosine (MTA) was prepared using the EPIgeneous Diluent Buffer from the EPIgeneous Methyltransferase kit. With reference to the instructions, SAM and SAH standards were serially diluted and dispensed at 10 µL per well (in duplicate for each concentration). 2 µL of EPIgeneous Detection Buffer 1 was added to each well, and the plate was centrifuged, shaken to mix thoroughly, and placed at room temperature for 10 min. The SAH d2 Reagent was diluted 32-fold with EPIgeneous Detection Buffer 2, and 4 µL of the diluted SAH-d2 solution was added to each well. The plate was centrifuged and shaken for 2 min to mix thoroughly. The SAH Tb Cryptate Antibody was diluted 50-fold in EPIgeneous Detection Buffer 2. 4 µL of the diluted Tb Cryptate Antibody solution was added to each well, and the plate was centrifuged, shaken for 2 min to mix thoroughly, and left to stand at room temperature for 60 min, followed by reading on a PHERAstar FS microplate reader to obtain the 665/620 ratio. Plotting SAH concentration against the ratio to generate an x-y curve yields a corresponding calculation formula.
Reaction buffer (1×): 50 mM Tris-HCl [pH 8.5], 1 mM DTT, 0.005% Tween-20.
Compound preparation: a 20 mM solution of test compound in 100% DMSO was diluted in 100% DMSO to 1 mM as the highest concentration, and the solution at this concentration was then subjected to a 10-point, 3-fold serial dilution in 100% DMSO in a 96-well plate. Wells containing 100% DMSO served as the blank control. The above-described serially diluted compounds and the 100% DMSO were diluted 20-fold with the reaction buffer to prepare 5× compound solutions, which were mixed thoroughly for use.
The PRMT5:MEP50 was diluted in the reaction buffer to a final concentration of 12.5 nM. Then, 4 µL of the 12.5 nM PRMT5:MEP50 solution was added to each well of a 384-well plate. Wells containing 4 µL of the reaction buffer served as the negative control wells. 2 µL of the 5× compound solution was added to each well. For the negative control wells (no enzyme, no compound) and the positive control wells (no compound), 2 µL of 5% DMSO was added. The plate was sealed with a membrane, centrifuged, shaken for 2 min to mix thoroughly, and placed at room temperature for 20 min.
Preparation of substrate mixture solution: The substrate mixture solution containing 1.5 µM histone H4 peptide substrate (1-21) and 2.5 µM SAM, or 1.5 µM histone H4 peptide substrate (1-21), 2.5 µM SAM and 2.5 µM MTA was prepared in the reaction buffer.
The reaction was initiated by adding 4 µL of the substrate mixture solution (-/+ MTA) to each well. The plate was sealed with a membrane, centrifuged, shaken for 2 min to mix thoroughly, and incubated at 37°C for 120 min in a constant temperature incubator.
Detection: The detection was performed by using the EPIgeneous Methyltransferase kit. […]

| IC50 [2] | Structure (SMILES) | further results |
| --- | --- | --- |
| 5.4 nM | [2H]C([2H])([2H])n1ncc(-c2ccc3c(=O)[nH]nc(CN)c3c2)c1-c1c(F)c(Cl)c2c(c1C#N)O[C@H]1CC[C@H]1O2 (atropisomer, axis not shown; (M)) [Compound 11-p3, (M)-(2aS,8aR)-5-(4-(4-(aminomethyl)-1-oxo-1,2-dihydrophthalazin-6-yl)-1-(methyl-d3)-1H-pyrazol-5-yl)-7-chloro-6-fluoro-1,2,2a,8a-tetrahydrobenzo[b]cyclobuta[e][1,4]dioxine-4-carbonitrile] | IC50 (HCT116 MTAP-/- cells): 4.6 nM |
| 5.48 nM | Cn1ncc(-c2ccc3c(=O)[nH]nc(CN)c3c2)c1-c1c(F)cc2c(c1C#N)O[C@@H]1CC[C@@H]1O2 (atropisomer, axis not shown; (P)) [Compound 1-p4, (P)-(2aR,8aS)-5-(4-(4-(aminomethyl)-1-oxo-1,2-dihydrophthalazin-6-yl)-1-methyl-1H-pyrazol-5-yl)-6-fluoro-1,2,2a,8a-tetrahydrobenzo[b]cyclobuta[e][1,4]dioxine-4-carbonitrile] | – |
| 5.87 nM | [2H]C([2H])([2H])n1ncc(-c2ccc3c(=O)[nH]nc(CN)c3c2)c1-c1c(F)cc2c(c1C#N)O[C@@H]1CC[C@@H]1O2 (single isomer, unassigned) [Compound 2-p4] | – |
| 6.39 nM | [2H]C([2H])([2H])n1ncc(-c2ccc3c(=O)[nH]nc(CN)c3c2)c1-c1c(F)cc2c(c1C#N)OCC21CC1 [Compound 12, 6-(4-(4-(aminomethyl)-1-oxo-1,2-dihydrophthalazin-6-yl)-1-(methyl-d3)-1H-pyrazol-5-yl)-5-fluoro-2H-spiro[benzofuran-3,1'-cyclopropane]-7-carbonitrile] | – |

Second part, the compound before the results:

| Structure (SMILES) | IC50 [2] | further results |
| --- | --- | --- |
| Cn1ncc(-c2ccc3c(=O)[nH]nc(CN)c3c2)c1-c1c(F)cc2c(c1C#N)OCCO2 (atropisomer, axis not shown) [Comparative example 1, reference compound] | – | Vd/F ([1]; read-out: Apparent volume of distribution V/F): 132 L/kg; AUC(0-t) ([1]; read-out: Area under the curve AUC0-t): 1.72 µg·h/mL; CL/F ([1]; read-out: Clearance CL/F): 57.6 L/h/kg; half-life ([1]; read-out: Half life T1/2 (converted)): 1.6 h; Cmax ([1]; read-out: Plasma concentration Cmax): 0.657 µg/mL; IC50 (HCT116 MTAP-/- cells): 70.8 nM |
| [2H]C([2H])([2H])n1ncc(-c2ccc3c(=O)[nH]nc(CN)c3c2)c1-c1c(F)cc2c(c1C#N)O[C@H]1CC[C@H]1O2 (single isomer, unassigned) [Compound 2-p3] | 5.31 nM | – |
| [2H]C([2H])([2H])n1ncc(-c2ccc3c(=O)[nH]nc(CN)c3c2)c1-c1c(F)cc2c(c1C#N)N1CCC[C@@H]1CO2 (single isomer, unassigned) [Compound 5-p1] | 7.67 nM | – |
| [2H]C([2H])([2H])n1ncc(-c2ccc3c(=O)[nH]nc(CN)c3c2)c1-c1c(F)cc2c(c1C#N)N1CCC[C@@H]1CO2 (single isomer, unassigned) [Compound 5-p2] | 4.91 nM | – |
| [2H]C([2H])([2H])n1ncc(-c2ccc3c(=O)[nH]nc(CN)c3c2)c1-c1c(F)cc2c(c1C#N)N1CCC[C@H]1CO2 (single isomer, unassigned) [Compound 8-p2] | 3.86 nM | – |

Reference: patent publication EP4759817A1, “HETEROARYL COMPOUND, PREPARATION METHOD THEREFOR, AND USE THEREOF IN MEDICINE” (Jiangsu Hengrui Pharmaceuticals Co., Ltd., priority 2023, dated 2025)
